System: PBMC (polyclonal gluten-specific T cells) of paediatric and adult CD patients
Test: IFN-γ ELISpot of PBMC after 3 day oral wheat challenge (SFU, % of maximal peptide response, dominance scores, EC50; Examples 5-6)
Format: cell-based, human
Settings: for IFN-γ ELISpot response: after oral wheat challenge; for Cross-reactive T cell response: following wheat challenge; for IFN-γ ELISpot responses Day 0 prior to vs Day 6 after wheat challenge: p<0.05, Kruskal Wallis
[1] = subject I (3-5yrs/6-10yrs part)
[2] = subject J (3-5yrs/6-10yrs part)
[3] = subject K (3-5yrs/6-10yrs part)
[4] = subject V (3-5yrs/6-10yrs part)
[5] = subject W (3-5yrs/6-10yrs part)
[6] = subject Y (3-5yrs/6-10yrs part)
[7] = subject five (3-5yrs/6-10yrs part)
[8] = subject seven (3-5yrs/6-10yrs part)
[9] = subject six (3-5yrs/6-10yrs part)
[10] = subject ten (3-5yrs/6-10yrs part)
[11] = subject two (3-5yrs/6-10yrs part)

## PFPEQPEQPFPQP
Patient A, 11-17 yrs, cut-off 10 SFU
  IFN-γ ELISpot response: 4 SFU
Patient D, max peptide 30.5 SFU
  Significant response as percentage of maximal peptide SFU: ′′ (21-40% = ′′)
Patient E, H, 11-17 yrs, cut-off 10 SFU
  IFN-γ ELISpot response: 30 SFU
Patient E, max peptide 224 SFU
  Significant response as percentage of maximal peptide SFU: ′ (11-20% = ′)
Patient F, 11-17 yrs, cut-off 10 SFU
  IFN-γ ELISpot response: 32 SFU
Patient F, max peptide 178 SFU
  Significant response as percentage of maximal peptide SFU: ′ (11-20% = ′)
Patient G, 11-17 yrs, cut-off 10 SFU
  IFN-γ ELISpot response: 5 SFU
Patient H (HLA-DQ2.5 homozygote), 3-5yrs, cut-off 10 SFU
  IFN-γ ELISpot response: 19 SFU
Patient H, 11-17 yrs, cut-off 10 SFU
  IFN-γ ELISpot response: 17 SFU
Patient H, max peptide 17 SFU
  Significant response as percentage of maximal peptide SFU: + (>70% = +)
Patient ID not given, 11-17 yrs, cut-off 10 SFU
  IFN-γ ELISpot response: 24 SFU
Patient ID not given, max peptide 95 SFU
  Significant response as percentage of maximal peptide SFU: ′′ (21-40% = ′′)
Patient J, max peptide 196 SFU
  Significant response as percentage of maximal peptide SFU: ′′ (21-40% = ′′)
Patient K, max peptide 53 SFU
  Significant response as percentage of maximal peptide SFU: ′′ (21-40% = ′′)
Patient M, max peptide 48 SFU
  Significant response as percentage of maximal peptide SFU: ′′ (21-40% = ′′)
Patient N, 3-5yrs, cut-off 10 SFU
  IFN-γ ELISpot response: 2 SFU
Patient P, 11-17 yrs, cut-off 21.6 SFU
  IFN-γ ELISpot response: 8 SFU
Patient Q, 11-17 yrs, cut-off 10 SFU
  IFN-γ ELISpot response: 35 SFU
Patient Q, max peptide 97 SFU
  Significant response as percentage of maximal peptide SFU: ′′ (21-40% = ′′)
Patient U, H, 11-17 yrs, cut-off 10 SFU
  IFN-γ ELISpot response: 13 SFU
Patient U, max peptide 81 SFU
  Significant response as percentage of maximal peptide SFU: ′ (11-20% = ′)
Patient V, 6-10 yrs, cut-off 10 SFU
  IFN-γ ELISpot response: 16 SFU
Patient V, max peptide 35 SFU
  Significant response as percentage of maximal peptide SFU: ′′′ (41-70% = ′′′)
Patient Y, 6-10 yrs, cut-off 10 SFU
  IFN-γ ELISpot response: 4 SFU
Patient eleven, 6-10 yrs, cut-off 10 SFU
  IFN-γ ELISpot response: 4 SFU
Patient five, max peptide 48 SFU
  Significant response as percentage of maximal peptide SFU: ′′ (21-40% = ′′)
Patient four, 3-5yrs, cut-off 10 SFU
  IFN-γ ELISpot response: 6 SFU
Patient seven, 6-10 yrs, cut-off 10.5 SFU
  IFN-γ ELISpot response: 9 SFU
Patient ten, 3-5yrs, cut-off 10 SFU
  IFN-γ ELISpot response: 5 SFU
Patient three, 6-10 yrs, cut-off 10.5 SFU
  IFN-γ ELISpot response: 51 SFU
Patient twelve, 11-17 yrs, cut-off 10 SFU
  IFN-γ ELISpot response: 11 SFU
Patient two, 3-5yrs, cut-off 10 SFU
  IFN-γ ELISpot response: 24 SFU
Patient two, max peptide 60 SFU
  Significant response as percentage of maximal peptide SFU: ′′ (21-40% = ′′)

## QLFPLPEQPFPQP
Subject A, 11-17yrs
  Cross-reactive T cell response: 2 SFU
Subject D, 11-17yrs
  Cross-reactive T cell response: 2 SFU
Subject E, 11-17yrs
  Cross-reactive T cell response: 2 SFU
Subject F, 11-17yrs
  Cross-reactive T cell response: 2 SFU
Subject G, 11-17yrs
  Cross-reactive T cell response: 0 SFU
Subject H
  Cross-reactive T cell response: 0 SFU
[1]
  Cross-reactive T cell response: 1 SFU
Subject J
  Significant response as a percentage of maximal peptide SFU: ′ (11-20% = ′)
[2]
  Cross-reactive T cell response: 26 SFU
[3]
  Cross-reactive T cell response: 5 SFU
Subject P, 11-17yrs
  Cross-reactive T cell response: 11 SFU
Subject Q, 11-17yrs
  Significant response as a percentage of maximal peptide SFU: ′ (11-20% = ′)
  Cross-reactive T cell response: 13 SFU
Subject T, 11-17yrs
  Significant response as a percentage of maximal peptide SFU: ′ (11-20% = ′)
  Cross-reactive T cell response: 13 SFU
Subject U, 11-17yrs
  Cross-reactive T cell response: 9 SFU
[4]
  Cross-reactive T cell response: 4 SFU
[5]
  Cross-reactive T cell response: 4 SFU
[6]
  Cross-reactive T cell response: 2 SFU
[7]
  Cross-reactive T cell response: 7 SFU
Subject nine, 11-17yrs
  Cross-reactive T cell response: 1 SFU
[8]
  Cross-reactive T cell response: 1 SFU
[9]
  Cross-reactive T cell response: 0 SFU
Subject ten
  Significant response as a percentage of maximal peptide SFU: + (>70% = +)
[10]
  Cross-reactive T cell response: 14 SFU
[11]
  Cross-reactive T cell response: 3 SFU

## LPFPQPEQPFVVV
Subject A, 11-17yrs
  Cross-reactive T cell response: 1 SFU
Subject D, 11-17yrs
  Significant response as a percentage of maximal peptide SFU: ′′′ (41-70% = ′′′)
  Cross-reactive T cell response: 20 SFU
Subject E, 11-17yrs
  Significant response as a percentage of maximal peptide SFU: (6-10% - ^)
  Cross-reactive T cell response: 16 SFU
Subject F, 11-17yrs
  Significant response as a percentage of maximal peptide SFU: (6-10% - ^)
  Cross-reactive T cell response: 15 SFU
Subject G, 11-17yrs
  Cross-reactive T cell response: 3 SFU
Subject H
  Cross-reactive T cell response: 3 SFU
[1]
  Cross-reactive T cell response: 7 SFU
Subject J
  Significant response as a percentage of maximal peptide SFU: ′ (11-20% = ′)
[2]
  Cross-reactive T cell response: 29 SFU
Subject K
  Significant response as a percentage of maximal peptide SFU: ′′ (21-40% = ′′)
[3]
  Cross-reactive T cell response: 18 SFU
Subject P, 11-17yrs
  Cross-reactive T cell response: 20 SFU
Subject Q, 11-17yrs
  Significant response as a percentage of maximal peptide SFU: ′′ (21-40% = ′′)
  Cross-reactive T cell response: 31 SFU
Subject T, 11-17yrs
  Significant response as a percentage of maximal peptide SFU: ′′′ (41-70% = ′′′)
  Cross-reactive T cell response: 42 SFU
Subject U, 11-17yrs
  Cross-reactive T cell response: 8 SFU
Subject V
  Significant response as a percentage of maximal peptide SFU: ′′ (21-40% = ′′)
[4]
  Cross-reactive T cell response: 13 SFU
[5]
  Cross-reactive T cell response: 9 SFU
[6]
  Cross-reactive T cell response: 7 SFU
Subject five
  Significant response as a percentage of maximal peptide SFU: + (>70% = +)
[7]
  Cross-reactive T cell response: 34 SFU
Subject nine, 11-17yrs
  Cross-reactive T cell response: 1 SFU
[8]
  Cross-reactive T cell response: 3 SFU
[9]
  Cross-reactive T cell response: 8 SFU
[10]
  Cross-reactive T cell response: 8 SFU
Subject two
  Significant response as a percentage of maximal peptide SFU: ′′ (21-40% = ′′)
[11]
  Cross-reactive T cell response: 18 SFU

## tetanus toxoid: positive control antigen (CSL, Australia) [reference compound]
  IFN-γ ELISpot responses Day 0 prior to vs Day 6 after wheat challenge: no difference
Listed as Tetanus toxoid
  IFN-γ ELISpot responses Day 0 prior to vs Day 6 after wheat challenge: did not differ

## QPFPQPEQELPLQ
Subject A, 11-17yrs
  Cross-reactive T cell response: 4 SFU
Subject D, 11-17yrs
  Cross-reactive T cell response: 7 SFU
Subject E, 11-17yrs
  Significant response as a percentage of maximal peptide SFU: ′′ (21-40% = ′′)
  Cross-reactive T cell response: 46 SFU
Subject F, 11-17yrs
  Significant response as a percentage of maximal peptide SFU: ′ (11-20% = ′)
  Cross-reactive T cell response: 31 SFU
Subject G, 11-17yrs
  Cross-reactive T cell response: 1 SFU
Subject H
  Cross-reactive T cell response: 5 SFU
[1]
  Cross-reactive T cell response: 6 SFU
Subject J
  Significant response as a percentage of maximal peptide SFU: ′′ (21-40% = ′′)
[2]
  Cross-reactive T cell response: 57 SFU
Subject K
  Significant response as a percentage of maximal peptide SFU: ′ (11-20% = ′)
[3]
  Cross-reactive T cell response: 13 SFU
Subject P, 11-17yrs
  Cross-reactive T cell response: 17 SFU
Subject Q, 11-17yrs
  Significant response as a percentage of maximal peptide SFU: ′ (11-20% = ′)
  Cross-reactive T cell response: 14 SFU
Subject T, 11-17yrs
  Significant response as a percentage of maximal peptide SFU: ′′ (21-40% = ′′)
  Cross-reactive T cell response: 36 SFU
Subject U, 11-17yrs
  Significant response as a percentage of maximal peptide SFU: ′ (11-20% = ′)
  Cross-reactive T cell response: 12 SFU
[4]
  Cross-reactive T cell response: 7 SFU
[5]
  Cross-reactive T cell response: 0 SFU
[6]
  Cross-reactive T cell response: 0 SFU
[7]
  Cross-reactive T cell response: 33 SFU
Subject nine, 11-17yrs
  Cross-reactive T cell response: 1 SFU
[8]
  Cross-reactive T cell response: 8 SFU
[9]
  Cross-reactive T cell response: 5 SFU
Subject ten
  Significant response as a percentage of maximal peptide SFU: + (>70% = +)
[10]
  Cross-reactive T cell response: 15 SFU
[11]
  Cross-reactive T cell response: 9 SFU

## QPFPQPEQPTPIQ
Subject A, 11-17yrs
  Cross-reactive T cell response: 6 SFU
Subject D, 11-17yrs
  Significant response as a percentage of maximal peptide SFU: ′′ (21-40% = ′′)
  Cross-reactive T cell response: 11 SFU
Subject E, 11-17yrs
  Significant response as a percentage of maximal peptide SFU: ′′ (21-40% = ′′)
  Cross-reactive T cell response: 63 SFU
Subject F, 11-17yrs
  Cross-reactive T cell response: 73 SFU
Subject G, 11-17yrs
  Cross-reactive T cell response: 1 SFU
Subject H
  Cross-reactive T cell response: 1 SFU
[1]
  Cross-reactive T cell response: 0 SFU
Subject J
  Significant response as a percentage of maximal peptide SFU: ′′′ (41-70% = ′′′)
[2]
  Cross-reactive T cell response: 86 SFU
[3]
  Cross-reactive T cell response: 7 SFU
Subject P, 11-17yrs
  Significant response as a percentage of maximal peptide SFU: ′′ (21-40% = ′′)
  Cross-reactive T cell response: 23 SFU
Subject Q, 11-17yrs
  Significant response as a percentage of maximal peptide SFU: ′′′ (41-70% = ′′′)
  Cross-reactive T cell response: 39 SFU
Subject T, 11-17yrs
  Significant response as a percentage of maximal peptide SFU: ′′′ (41-70% = ′′′)
  Cross-reactive T cell response: 61 SFU
Subject U, 11-17yrs
  Significant response as a percentage of maximal peptide SFU: ′′ (21-40% = ′′)
  Cross-reactive T cell response: 21 SFU
[4]
  Cross-reactive T cell response: 5 SFU
[5]
  Cross-reactive T cell response: 0 SFU
[6]
  Cross-reactive T cell response: 4 SFU
Subject five
  Significant response as a percentage of maximal peptide SFU: + (>70% = +)
[7]
  Cross-reactive T cell response: 38 SFU
Subject nine, 11-17yrs
  Cross-reactive T cell response: 2 SFU
[8]
  Cross-reactive T cell response: 6 SFU
Subject six
  Significant response as a percentage of maximal peptide SFU: + (>70% = +)
[9]
  Cross-reactive T cell response: 12 SFU
[10]
  Cross-reactive T cell response: 8 SFU
Subject two
  Significant response as a percentage of maximal peptide SFU: ′′ (21-40% = ′′)
[11]
  Cross-reactive T cell response: 20 SFU

From US20170232083A1, “METHODS OF DIAGNOSIS AND TREATMENT OF CELIAC DISEASE IN CHILDREN” (priority 2014, published 2017)
